Laboratory results from ChEMBL document CHEMBL1130848, “Synthesis and preliminary evaluation of (S)-2-(4'-carboxycubyl)glycine, a new selective mGluR1 antagonist” (Bioorg Med Chem Lett, 1998).

What was measured:
[1] = target: Metabotropic glutamate receptor 2 (Homo sapiens, UniProt Q14416); assay: Concentration required to inhibit mGluR2 receptor
[2] = target: Metabotropic glutamate receptor 1 (Homo sapiens, UniProt Q13255); assay: Inhibitory activity against mGluR1 receptor
Chain of Metabotropic glutamate receptor 1 (Q13255 whole entry): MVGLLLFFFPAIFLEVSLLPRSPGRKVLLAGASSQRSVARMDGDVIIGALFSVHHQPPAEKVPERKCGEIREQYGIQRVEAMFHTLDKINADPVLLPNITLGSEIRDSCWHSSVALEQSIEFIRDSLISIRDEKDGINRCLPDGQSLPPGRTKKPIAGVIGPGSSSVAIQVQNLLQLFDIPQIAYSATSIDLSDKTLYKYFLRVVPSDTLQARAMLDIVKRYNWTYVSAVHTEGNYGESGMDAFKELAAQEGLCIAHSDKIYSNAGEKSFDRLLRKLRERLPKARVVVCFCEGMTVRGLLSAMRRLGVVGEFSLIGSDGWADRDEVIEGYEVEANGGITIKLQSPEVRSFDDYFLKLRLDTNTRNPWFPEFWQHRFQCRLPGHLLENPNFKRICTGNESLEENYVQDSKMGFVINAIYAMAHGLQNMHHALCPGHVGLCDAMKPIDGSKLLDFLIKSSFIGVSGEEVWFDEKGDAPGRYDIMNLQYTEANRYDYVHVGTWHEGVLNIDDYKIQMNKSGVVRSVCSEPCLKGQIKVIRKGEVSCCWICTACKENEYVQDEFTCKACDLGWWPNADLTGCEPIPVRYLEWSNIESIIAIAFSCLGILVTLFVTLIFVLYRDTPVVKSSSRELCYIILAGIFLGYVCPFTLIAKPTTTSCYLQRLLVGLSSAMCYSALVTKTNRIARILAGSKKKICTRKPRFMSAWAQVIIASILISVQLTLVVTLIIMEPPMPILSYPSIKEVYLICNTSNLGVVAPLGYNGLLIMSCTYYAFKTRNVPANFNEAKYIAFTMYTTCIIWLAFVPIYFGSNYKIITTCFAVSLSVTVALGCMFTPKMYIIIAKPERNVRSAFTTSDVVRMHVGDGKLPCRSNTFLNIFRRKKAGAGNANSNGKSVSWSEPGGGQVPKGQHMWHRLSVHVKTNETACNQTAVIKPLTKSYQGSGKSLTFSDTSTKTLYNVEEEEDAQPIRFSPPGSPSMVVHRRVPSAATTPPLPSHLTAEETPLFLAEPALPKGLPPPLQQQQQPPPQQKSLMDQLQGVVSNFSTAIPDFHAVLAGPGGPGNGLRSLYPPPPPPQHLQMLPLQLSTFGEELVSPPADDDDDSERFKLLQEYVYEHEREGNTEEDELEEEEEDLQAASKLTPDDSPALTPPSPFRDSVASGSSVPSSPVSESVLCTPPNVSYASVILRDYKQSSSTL

Chain of Metabotropic glutamate receptor 2 (Q14416 whole entry): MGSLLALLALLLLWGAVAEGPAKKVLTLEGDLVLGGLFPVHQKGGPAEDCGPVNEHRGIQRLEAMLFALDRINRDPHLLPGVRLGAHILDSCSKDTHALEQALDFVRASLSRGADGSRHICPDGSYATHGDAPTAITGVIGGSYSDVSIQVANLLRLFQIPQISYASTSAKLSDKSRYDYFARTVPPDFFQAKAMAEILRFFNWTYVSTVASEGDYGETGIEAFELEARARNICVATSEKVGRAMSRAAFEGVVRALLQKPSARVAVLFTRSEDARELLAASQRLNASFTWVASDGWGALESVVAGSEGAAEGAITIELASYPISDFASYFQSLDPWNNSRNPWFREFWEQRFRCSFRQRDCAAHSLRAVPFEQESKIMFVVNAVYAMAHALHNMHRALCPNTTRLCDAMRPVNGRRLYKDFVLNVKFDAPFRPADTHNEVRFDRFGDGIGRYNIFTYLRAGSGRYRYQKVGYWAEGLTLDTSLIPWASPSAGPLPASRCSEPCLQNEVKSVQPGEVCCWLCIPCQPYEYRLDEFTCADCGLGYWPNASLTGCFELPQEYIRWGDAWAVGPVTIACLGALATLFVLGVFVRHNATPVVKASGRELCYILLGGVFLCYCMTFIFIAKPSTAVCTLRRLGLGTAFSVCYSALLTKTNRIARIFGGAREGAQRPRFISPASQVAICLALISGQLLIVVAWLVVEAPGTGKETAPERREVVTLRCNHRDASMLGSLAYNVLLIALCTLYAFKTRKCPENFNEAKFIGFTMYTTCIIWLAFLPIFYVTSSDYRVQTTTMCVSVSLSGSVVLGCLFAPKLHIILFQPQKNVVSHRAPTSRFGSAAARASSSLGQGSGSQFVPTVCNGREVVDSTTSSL

- EC50 [1]: 54.9 µM
- IC50 [2]: 232 µM
Compound: N[C@H](C(=O)O)C12C3C4C1C1C2C3C41C(=O)O (some centres not stated)
